Laboratory results taken from US6809193B2, “Antisense oligonucleotide compositions and methods for the modulation of JNK proteins” (ISIS Pharmaceuticals, Inc., priority 1997, dated 2004).

How the values were obtained:
[1] = test system: JNK1 mRNA; assay: Northern assay, JNK1 mRNA expression in A549 cells; type: cell-based, human; conditions: for inhibition of JNK1 mRNA expression: 400 nM, Northern assay, Table 5; for RNA % Inhibition: JNK1 mRNA
[2] = test system: JNK1 protein; assay: Western assay, JNK1 protein levels in A549 cells; type: cell-based, human; conditions: t = 72 h
Experimental: In order to evaluate the activity of potential JNK-modulating oligonucleotides, human lung carcinoma cell line A549 (American Type Culture Collection, 10801 University Boulevard, Manassas, Va. 20110-2209, No. ATCC CCL-185) cells or other cell lines as indicated in the Examples, were grown and treated with oligonucleotides or control solutions as detailed below. After harvesting, cellular extracts were prepared and examined for specific JNK mRNA levels or JNK protein levels (i.e., Northern or Western assays, respectively). In all cases, “% expression” refers to the amount of JNK-specific signal in an oligonucleotide-treated cell relative to an untreated cell (or a cell treated with a control solution that lacks oligonucleotide), and “% inhibition” is calculated as
A549 cells were grown and treated with oligonucleotides as described above. […] The amount of each JNK protein was determined by using a primary antibody that specifically recognizes the appropriate JNK protein. […]
In order to assess the effect of oligonucleotides targeted to JNK1 mRNAs on JNK1 protein levels, Western assays were performed essentially as described above in Example 2, with the following exception(s) and/or modification(s). […] The samples from t=48 h and t=72 h were analyzed using the Northern and Western assays described above.

[3] = test system: MDA-MB-231 tumors; assay: MDA-MB-231 human tumor xenograft in nude mice; type: in vivo; conditions: 25 mg/kg intravenous once daily; for Mean Tumor Volume (cm^3): nude mice
Text: Approximately 5×10^6 breast adenocarcinoma cells (cell line MDA-MB-231; American Type Culture Collection, 10801 University Boulevard, Manassas, Va. 20110-2209, No. ATCC HTB-26) were implanted subcutaneously in the right inner thigh of nude mice (n=6 for each of three sets of mice). Oligonucleotides ISIS 15346 (JNK1, SEQ ID NO:16) and 15353 (JNK2, SEQ ID NO:31) were suspended in saline and administered once daily to two sets of mice on the first day the tumor volume was about 100 mm^3. A saline-only (0.9% NaCl) solution was given to a third set of animals as a control. Oligonucleotides were given by intravenous injection at a dosage of 25 mg/kg. Tumor size was measured and tumor volume was calculated on days 12, 19, 26 and 33 following tumor cell inoculation.

[4] = test system: JNK activity; assay: TNFa-induced JNK activity in HUVEC (GST-c-Jun phosphorylation); type: cell-based, human; conditions: 100 nM, 5 ng/ml TNFa 15 minutes, compared to a control oligonucleotide

Substance | inhibition of JNK1 mRNA expression [1] | Protein % Inhibition [2] | tumor growth compared to the saline control ([3]; MDA-MB-231 tumors) | RNA % Inhibition ([1]; t = 48 h, 300 nM for initial 20 hours then 200 nM for 4 hours) | RNA % Inhibition ([1]; t = 72 h) | Mean Tumor Volume (cm^3) ([3]; Day 12 following tumor cell inoculation) | Mean Tumor Volume (cm^3) ([3]; Day 19) | Mean Tumor Volume (cm^3) ([3]; Day 26) | Mean Tumor Volume (cm^3) ([3]; Day 33) | inhibition of TNFa-induced JNK activity [4]
15346 (antisense CTCTCTGTAGGCCCGCTTGG; gapmer, 2'-MOE wings, phosphorothioate, chemistry not fully specified) [compound 15346] | at least 88% | 74.3% | inhibited tumor growth compared to the saline control |  |  |  |  |  |  | 
15347 (antisense CTCTCTGTAGGCCCGCTTGG; gapmer, 2'-MOE P=O wings, P=S deoxy core, chemistry not fully specified) [compound 15347] | at least 88% | 71.6% |  | > 70% | > 70% |  |  |  |  | 
C^sT^sC^sT^sC^sT^sG^sT^sA^sG^sG^sC^sC^sC^sG^sC^sT^sT^sG^sG (antisense CTCTCTGTAGGCCCGCTTGG; all phosphorothioate, sugars by position and methylation of C not given here) [ISIS 15346, JNK1 gapmer: P=S, 2′-MOE wings; P=S, 2′-deoxy core] |  |  |  |  |  | 0.122 cm^3 | 0.255 cm^3 | 0.400 cm^3 | 0.638 cm^3 | approximately 70%
